The results in this text go back to patent US20110301192A1, “Inhibitors of Cyclin Kinase Inhibitor p21” (The regents of the University of California, priority 2008, published 2011).

One experiment concerns kidney cancer cell lines. Briefly: MTT cytotoxic assay in kidney cancer cell lines (FIG. 8). The format is cell-based. The following applies: kidney cancer cells; 1, 10 or 20 μM in complete media; 48 hr. The method, then: The kidney cancer cells were incubated in serum-free media for 16 hr and treated with vehicle (DMSO) and serum-containing complete media (CM) alone or the indicated compounds (at 1, 10 or 20 μM) in CM. After 48 hr, the MTT assay was performed as described below. The visible absorbance of each well was quantified using a microplate reader.
(§1) A 200 μL aliquot of cells (1×10^3 cells in quiescent media) was added to a 96 well plate and incubated for 18 hr at 37° C. in a humidified incubator containing 5% CO2 in air. After incubation, each condition of small molecule ligands (No. 4, 7, and 10) was added into each well for 48 hr and for synergic assay of Doxorubicin, after incubation for 6 hr with compound No. 10, Doxorubicin dissolved in DMSO was added to each of the 96 wells and incubated for 42 hr. Control cultures were treated with DMSO. After incubation, a 20 μL MTT solution (5 mg/mL in phosphate buffer) was added to each well and the incubation continued for 4 hr, after which time the solution in each well was carefully removed. The blue crystalline precipitate in each well was dissolved in DMSO 200 μL). The visible absorbance at 560 nm of each well was quantified using a microplate reader.
On the technique in general: Tetrazolium dyes change colour on reduction, which living cells bring about.

For experiment [1], the system named is ACHN and A-498 cells. Briefly: Apoptosis (PARP immunoblot) in combination with doxorubicin. The format is cell-based, human. The following applies: 100 μM, after 6 h doxorubicin 0.1 and 0.25 μM for 42 h. The method, then: (§2) After 6 h, doxorubicin was added (0.1 and 0.25 μM) in serum containing media followed in 42 h by (a) the MTT assay as described below; and (b) immunoblotting with PARP, p21, and β-actin.
(§3) Chemiluminescence was detected using enhanced ECL.
A general note: In western blotting, separated proteins are transferred to a membrane and probed.

The subject of experiment [2] is ACHN and A-498 cells. Kind of experiment: MTT synergy assay with doxorubicin. The format is cell-based, human. As to conditions: 100 μM, after 6 h doxorubicin 0.1 and 0.25 μM for 42 h. The method, then: as §2, §1
Experiment [3] has as its target T1, p21 (Homo sapiens, UniProt P38936). Briefly: p21 stability with cycloheximide or proteasome inhibitors (immunoblot). The following applies: ACHN and A-498 cells; 100 μM; with cycloheximide 10 μg/ml or proteasome inhibitors (lactacystin, LLnL, MG132, 20 μM). The format is cell-based. The method, then:
ACHN and A-498 cells were incubated in serum-free media for 16 hr and treated with (a) compound 10 (100 μM), cycloheximide (CHX, 10 μg/ml), or compound 10 plus CHX for the indicated time, or (b) three different proteasome inhibitors (lactascystin, 20 μM; LLnL, 20 μM; MG132, 20 μM) for 6 h and followed by incubation of compound 10 (100 μM) for the indicated time. The density ratio of p21/actin is shown. Q refers to cells incubated in serum-free media only; P refers to cells incubated with PDGF only.
as §3

For experiment [4], the target named is T1, p21. Kind of experiment: p21 ubiquitinylation (immunoprecipitation with p21 antibody, ubiquitin immunoblot). As to conditions: ACHN and A-498 cells; 100 μM. The format is cell-based. Here is the method:
ACHN and A-498 cells were incubated in serum-free media for 16 hr and treated or not treated with compound 10 (100 μM) for the indicated times. Cells were harvested and immunoprecipitated with p21 antibody-agarose conjugate and immuno-blotted with either p21 or ubiquitin. Ponceau-staining heavy chain of anti-p21-IgG was performed on the same lysate as loading control.
as §3

Experiment [5] deals with ACHN and A-498 cells. Briefly: MTT cytotoxic assay (cell viability) in RCC cell lines. The format is cell-based, human. The following applies: 10, 50 and 100 μM in complete media, 48 hr. The method, then:
After 48 hr, the MTT assay was performed as described below. The visible absorbance of each well was quantified using a microplate reader.
ACHN and A498 human RCC cells (from ATCC) were maintained in MEM 1× media supplemented with 10% fetal bovine serum, 2 mM L-glutamine, 1 mM sodium pyruvate, 0.1 mM non-essential amino acid, and 0.75% sodium bicarbonate at 37° C. in a humidified incubator containing 5% CO2 in air.
as §1

The subject of another experiment is p27. Kind of experiment: Immunoblotting of p27 protein levels in RCC cells. The format is cell-based, human. As to conditions: all concentrations examined (10, 50, 100 μM); immunoblot.
Excerpt: as §3

The test system of experiment [6] is ACHN and A-498 cells. Briefly: Apoptosis by PARP cleavage (immunoblot) in RCC cells. As to conditions: up to 72 h.
Protocol: Cells were harvested and immunoblotted with p57, p27, and p21. […] Cells were harvested and immunoblotted with PARP and p21. β-actin is a gel-loading control.
Cells were washed with PBS and lysed in lysis buffer (50 mM HEPES, 1% Triton X-100, 10 mM sodium pyrophosphate, 100 mM sodium fluoride, 4 mM EDTA) at 0° C. Cell lysates were centrifuged (13,000×g, 4° C., 20 min) and the supernatants were electrophoresed and immunoblotted. For immunoprecipitation, cell lysates were incubated with p21 antibody agarose-conjugate overnight at 4° C. and immunoprecipitates were washed five times with lysis buffer. The bound proteins were eluted with SDS sample buffer and elctophoresed and immnoblotted. The membranes were blocked in 5% non-fat dry milk for 1 hr at room temperature, and probed with appropriate antibodies. Membranes were then probed with HRP-tagged anti-mouse or anti-rabbit IgG antibodies diluted 1:5,000-1:15,000 in 5% non-fat dry milk for 1 hr at room temperature. Chemiluminescence was detected using enhanced ECL.
For the next experiment, the system named is p57. Briefly: Immunoblotting of p57 protein levels in RCC cells. The format is cell-based, human. As to conditions: all concentrations examined (10, 50, 100 μM); immunoblot.
Excerpt: as §3

Experiment [7] addresses T2, GST-tagged p21 recombinant protein (GST-p21) (Homo sapiens, UniProt P38936).
T2 construct: purchased ProSpec-Tany TechnoGene Ltd. (Rehovot, Israel)
Kind of experiment: Two-step OBOC bead screening with recombinant GST-p21. The format is binding. As to conditions: OBOC beads, GST-p21 probe, GST-alone subtraction.
Protocol: OBOC beads tethered with small molecule ligands were incubated with recombinant GST-p21 (or GST alone as control) and incubated with anti-GST antibodies conjugated with alkaline phosphatase. Blue beads in stage 2 were discarded and the true positive beads (i.e., clear beads in stage 2 which indicate binding only to p21) were picked up and submitted for MS decoding.
A two-step screening of the small molecule OBOC combinatorial library was performed using GST-tagged p21 recombinant protein (GST-p21) from ProSpec-Tany TechnoGene Ltd. (Rehovot, Israel) (FIG. 2). Screening was conducted in small disposable chromatography columns. Each screening used 25,000-30,000 beads that were first blocked with 0.1% BSA in PBS with 0.1% Tween 20 (PBST). In Stage 1 of the procedure, the beads were incubated with a 1:10,000 dilution of GST-p21, washed, incubated with anti-GST antibody conjugated with alkaline phosphatase (anti-GST-AP), washed, and incubated with the phosphatase substrate 5-bromo-4-chloro-3-indolyl-phosphate (BCIP). Beads became blue and were selected for next step. Stage 2 of the procedure was to remove the false positive beads that are interacting with GST and anti-GST-AP not p21. The beads from Stage 1 were incubated with 8 M guanidine-HCl for removing bound proteins and DMF for removing blue color followed by PBST washing and re-blocking with PBST. And then the beads were incubated with GST alone, washed, incubated with anti-GST-AP, washed, and incubated with the phosphatase substrate BCIP. From this step, the clear beads were considered true positive beads, therefore they were selected and deproteinated with 8 M guanidine-HCl prior to decoding with mass spectrometry.

The target of experiment [8] is T1, p21. Briefly: Immunoblotting of p21 protein levels in RCC cells. The format is cell-based. As to conditions: serum-starved ACHN and A-498 cells; 10, 50 and 100 μM; immunoblot.
Excerpt: as §3

“Also recorded” adds a separate entry of the source.

T2 sequence (P38936 whole entry): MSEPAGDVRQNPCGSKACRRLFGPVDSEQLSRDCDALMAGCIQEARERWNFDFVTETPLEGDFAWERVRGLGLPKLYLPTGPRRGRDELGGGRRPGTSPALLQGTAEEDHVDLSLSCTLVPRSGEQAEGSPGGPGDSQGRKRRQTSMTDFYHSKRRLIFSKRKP
T1 sequence (P38936 whole entry): as above

Consider `Cc1ccccc1NC(=O)NC(CC(N)=O)c1ccc2c(c1)nc(-c1cccc(Oc3ccc(C(C)(C)C)cc3)c1)n2CC[C@@H]1CCCN2CCCC[C@H]12` (some centres unmarked) [LLW40], for which the “cell survival / cell viability (MTT assay)” value in the experiment on kidney cancer cell lines was “dose-dependent inhibition of cell survival; also recorded: decreasing cell viability”.
In the case of `Cc1ccccc1NC(=O)NC(CC(N)=O)c1ccc2c(c1)nc(-c1cccc(Oc3ccc(C(C)(C)C)cc3)c1)n2CCCN1CCC(C)CC1` (centres unmarked) [LLW39], the “cell survival / cell viability (MTT assay)” value in the experiment on kidney cancer cell lines is listed as “dose-dependent inhibition of cell survival; also recorded: decreasing cell viability”.
Still for that read-out and setting: in the case of `Cc1ccccc1NC(=O)NC(CC(N)=O)c1ccc2c(c1)nc(-c1cccc(Oc3ccc(C(C)(C)C)cc3)c1)n2CCCN1CCCCC1C` (centres unmarked) [LLW15] it was “dose-dependent inhibition of cell survival; also recorded: decreasing cell viability”.
For `Cc1ccccc1NC(=O)NC(CC(N)=O)c1ccc2c(c1)nc(-c1c3ccccc3cc3ccccc13)n2CCCN1CCCCC1C` (centres unmarked) [No. 10], the “apoptosis in combination with doxorubicin (PARP immunoblot)” value with ACHN and A-498 cells [1] is listed as “increase in apoptosis”. Besides, in the experiment with ACHN and A-498 cells [2], the “cell survival in combination with doxorubicin (MTT assay)” value is recorded as “synergistic decrease in cell survival; also recorded: synergistic anti-proliferative activity”. Besides, the p21 stability result on p21 [3] was “decreases p21 stability via a proteasome-mediated pathway”. Moreover, the “ubiquitinylation of p21” value at p21 [4] is given as “causes ubiquitinylation of p21; also recorded: p21 protein is bound by ubiquitin”. The “cell survival / cell viability (MTT assay)” value in the experiment with ACHN and A-498 cells [5] was “dose-dependent inhibition of cell survival; also recorded: decreased; also recorded: decreasing cell viability”. Moreover, the p27 protein levels entry in the experiment on p27 is on record as “no affect”. For the same compound, the “apoptosis as measured by PARP cleavage” value in the experiment with ACHN and A-498 cells [6] was “increased”. Besides, the p57 protein levels entry with p57 is given as “no affect”. The “binding to p21” value in [7] was “p21-binding”. Besides, the p21 protein levels result on p21 [8] was “markedly and specifically inhibited”.
As for `Cc1ccccc1NC(=O)NC(CC(N)=O)c1ccc2c(c1)nc(-c1cccc(Oc3ccc(C(C)(C)C)cc3)c1)n2C1CCN(Cc2ccccc2)CC1` (centres unmarked) [LLW42], in the experiment with kidney cancer cell lines, the “cell survival / cell viability (MTT assay)” value is reported as “dose-dependent inhibition of cell survival; also recorded: decreasing cell viability”.
As for `Cc1ccccc1NC(=O)NC(CC(N)=O)c1ccc2c(c1)nc(-c1cccc(Oc3ccc(C(C)(C)C)cc3)c1)n2CCCN1CCCC1` (centres unmarked) [LLW36], in the experiment on kidney cancer cell lines, the “cell survival / cell viability (MTT assay)” value is given as “dose-dependent inhibition of cell survival; also recorded: decreasing cell viability”.
`Cc1ccc(C)c(-c2nc3cc(C(CC(N)=O)NC(=O)Nc4ccccc4C(C)(C)C)ccc3n2CCCN2CCCCC2C)c1` (centres unmarked) [No. 4]: in the experiment with ACHN and A-498 cells [5], the “cell survival / cell viability (MTT assay)” value was “dose-dependent inhibition of cell survival; also recorded: decreased; also recorded: decreasing cell viability”. In addition, the p27 protein levels entry with p27 was “no affect”. The “apoptosis as measured by PARP cleavage” value in the experiment on ACHN and A-498 cells [6] is “increased”. Further, the p57 protein levels entry in the experiment on p57 was “no affect”. Further, the “binding to p21” value in experiment [7] is “p21-binding”. Further, the p21 protein levels result on p21 [8] is “markedly and specifically inhibited”.
Regarding `Cc1ccc(C)c(-c2nc3cc(C(CC(N)=O)NC(=O)Nc4ccccc4C)ccc3n2CCCN2CCCCC2C)c1` (centres unmarked) [No. 7], the “cell survival / cell viability (MTT assay)” value in the experiment on ACHN and A-498 cells [5] was “dose-dependent inhibition of cell survival; also recorded: decreased; also recorded: decreasing cell viability”. Further, the p27 protein levels result with p27 was “no affect”. Further, in the experiment with ACHN and A-498 cells [6], the “apoptosis as measured by PARP cleavage” value was “increased”. Also, the p57 protein levels entry in the experiment on p57 is on record as “no affect”. For the same compound, the “binding to p21” value in experiment [7] is on record as “p21-binding”. Also, on p21 [8], the p21 protein levels entry is “markedly and specifically inhibited”.
As to `CCN(CC)CCCn1c(-c2cccc(Oc3ccc(C(C)(C)C)cc3)c2)nc2cc(C(CC(N)=O)NC(=O)Nc3ccccc3C)ccc21` (centres unmarked) [LLW33], the “cell survival / cell viability (MTT assay)” value in the experiment on kidney cancer cell lines is given as “dose-dependent inhibition of cell survival; also recorded: decreasing cell viability”.
Same read-out and setting: as for `Cc1ccccc1NC(=O)NC(CC(N)=O)c1ccc2c(c1)nc(-c1cccc(Oc3ccc(C(C)(C)C)cc3)c1)n2CCC1CCCCN1C` (centres unmarked) [LLW38], the entry is “dose-dependent inhibition of cell survival; also recorded: decreasing cell viability”.
